Here are results for 10 compounds from patent US20190307740A1, “COMPOSITIONS AND METHODS FOR TREATMENT RELATED TO FALL AND FALL FREQUENCY IN NEURODEGENERATIVE DISEASES” (Neurocea, LLC, priority 2016, published 2019).

Like-named read-outs stand apart in the source and are kept apart here.

Series [1] deals with rats with a unilateral 6-hydroxydopamine lesion. Description: LIDs in rats with a unilateral 6-hydroxydopamine lesion. Type of series: in vivo. To be noted: parkinsonian rat model of LIDs.
A further series concerns nAChR. To be noted: cited from earlier work.
Series [2] concerns subjects with idiopathic PD with LIDs. To be noted: during the 10-week study. An excerpt:
The original UPDRS scale was used. […] In the UPDRS Part II, Question 13 is on Falling unrelated to Freezing. […] In Part II, Question 14 is on Freezing when Walking. This is a 5-point item and has two variables freezing and falls. […] Questions 13 and 14 were compared separately (Table 11).
(§1) The efficacy variables for LIDs were the mean change from baseline to week 10 in the UDysRS total score; UDysRS sub-scores (Table 12). An analysis of covariance (ANCOVA) combined features of regression and analysis of variance (ANOVA). In addition to the descriptive summary of each variable from baseline to endpoint, Least Square (LS) means standard errors and 95% Confidence intervals (CI) of each group, and the difference of LS means between the 2 treatment groups and its 95% CI are presented. A similar analysis was applied to comparisons between UPDRS Part II, UPDRS Part III.

Series [3] shares this test system. The protocol: (§2) At the time the study was performed (2009), there was no FDA accepted instrument for measuring treatment efficacy for LIDs. Therefore, several secondary objectives were utilized to assess efficacy including the Unified Dyskinesia Rating Scale (UDysRS).
(§3) Efficacy was measured with the Unified Dyskinesia Rating Scale (UDysRS), a semi-quantitative assessment, FDA-validated instrument to assess […] dyskinesia in PD. […] Dosing was begun at 1 mg every 6 hours to a final dose of 24 mg per day. Patients who tolerated a total daily dose of at least 16 mg per day continued in the study.
(§4) LIDs were assessed by the UDysRS, the main measure of LIDs (Table 12). […] The study was conducted in accordance with the Declaration of Helsinki and Good Clinical Practice Guidelines. All sites received approval from an institutional review board and written informed consent was obtained from each patient prior to participation.
as §1

Series [4] shares this test system. To be noted: Visit 4 (Week 10). The protocol: as §2
The test system is the same in series [5]. As to conditions: for Study discontinuation, primary reason adverse event, n (%): 35 randomized. As for the experimental part:
as §2
A total of 65 male and female subjects with idiopathic PD with LIDs were randomized in the study. The study consisted of 4 phases (FIG. 6A): screening phase (up to 3 weeks), double-blind treatment phase (10 weeks), taper phase (2 weeks), and follow-up phase (2 weeks). The approximate duration of the study for each subject was 17 weeks. […] During the double-blind treatment phase, dosing was begun at Visit 0 at 1 mg every 6 hours (total daily dose [TDD]=4 mg/day) and escalated upwards at 2-week intervals as follows: 2 mg every 6 hours (TDD=8 mg/day) at Visit 1 (Week 2); 4 mg every 6 hours (TDD=16 mg/day) at Visit 2 (Week 4); 6 mg every 6 hours (TDD=24 mg/day) at Visit 3 (Week 6). Subjects were maintained on 24 mg/day for 4 weeks. The subsequent taper phase (2 weeks total), beginning at Visit 4 (Week 10), consisted of 9 days of drug taper and 5 days off drug prior to Visit 5 (final safety visit). […] Ondansetron was provided by the sponsor and dispensed with each dose escalation step with instructions to use it for nausea and vomiting only during the first 4 days following dose initiation or escalation. […] No other dose down-titration was allowed.
as §3
Subjects were maintained on 24 mg/day for 4 weeks. The subsequent taper phase (2 weeks total), beginning at visit 4 (Week 10), consisted of 9 days of drug taper and 5 days off drug prior to Visit 5 (final safety visit). […] No other down-titration was allowed.
as §4

The conditions of series [6]: cited from earlier work; for absorption: oral / gastrointestinal tract.
The next series addresses all nAChRs. As to conditions: cited from earlier work.
Setting [7] is: Phase 2 data used for sample size.

In the case of `c1cncc(OC[C@@H]2CCN2)c1` [A-85380], in [1], the “effect on LIDs” value is listed as “reduced LIDs to varying extents”.
Take `Cc1ncccc1OC[C@@H]1CCCN1` [ABT-089]: in the series with nAChR, the Type of agonist result is given as “Partial”.
For the compound `c1cc2cc(-c3ccc(O[C@H]4CN5CCC4CC5)nn3)ccc2[nH]1` [ABT-107], the Type of agonist entry in the series on nAChR is listed as “Full”.
Turning to `Clc1cc(N2C[C@@H]3CN[C@@H]3C2)cnc1Cl` [ABT-894], the Type of agonist entry in the series on nAChR is given as “Full”.
Consider `Cc1ccc(-c2ccc(OC3CN4CCC3CC4)cn2)cc1` (centres unmarked) [AQW051], for which the Type of agonist entry in the series with nAChR is given as “Partial”.
For `O=C(c1ccc(Cl)o1)N1CC2CNCC2C1` (centres unmarked) [AZD1446], the Type of agonist result in the series with nAChR is listed as “Full”.
For the compound `CN1CCC[C@H]1c1cccnc1` [Nicotine, (S)-3-[1-methylpyrrolidin-2-yl]pyridine, reference compound], the “worsening of Parkinson symptoms (UPDRS Part III, Hoehn and Yahr)” value in series [2] was “neither the UPDRS Part III nor the Hoehn and Yahr scales showed any worsening”. In series [2] (listed as nicotine), the “worsening of Parkinson symptoms (UPDRS Part III, Hoehn and Yahr)” value is on record as “did not cause any worsening of the PD symptoms”. Moreover, in series [3] (setting [7]), the “UDysRS part III, Week 10 result: change from baseline, mean” value is listed as 5.2 and the “UDysRS walking, Week 10 result: change from baseline, mean” value is 4.4. Besides, in series [3] (in vivo), the “Gait-subtest of the UDysRS vs placebo” value is on record as “statistically superior to placebo”; the “dyskinesia disability (UDysRS part 3), Walking, LF-ADL and PGI-C responders vs placebo” value is given as “Statistically significant differences favoring nicotine compared to placebo”. Further, the efficacy over time entry in the series on rats and mice (in vivo) was “no decline in its efficacy over time”. Besides, the “effect on LIDs” value in the series on rats and mice (oral application, injection, slow-release minipumps) is recorded as “reduced LIDs”. Besides, the “PGI-C responders (score of 1, 2, or 3)” value in [4] (p=0.0048 vs placebo) was 21 (77.8%). Besides, in series [4] (p=0.0453), the “LF-ADL responders (>25% reduction from baseline), vs placebo” value is on record as “statistically significant difference between treatment groups”. The “Study discontinuation, primary reason adverse event, n (%)” value in series [5] is on record as 6 n (%). In addition, the “Study discontinuation, primary reason adverse event, n (%)” value in series [5] (listed as nicotine) was “Six”. Moreover, the “impulsivity and nicotine withdrawal symptoms” value in [5] (after taper from 24 mg/day) is listed as “no issues with impulsivity or withdrawal symptoms”. Further, the “overall safety and tolerability” value in [5] (oral 4 times/day up to 24 mg/day, 10 weeks) was “safe and well tolerated”. Also, in [6] (in vivo), the first-pass metabolism entry is on record as “extensively metabolized into cotinine” and the “half-life” value is “very short half-life”. Also, the absorption entry in [6] is given as “well-absorbed in the gastrointestinal tract”. Moreover, in series [6] (listed as nicotine), the absorption entry is given as “rapidly absorbed”. In the series with nAChR, the Type of agonist entry is “Full” and the nAChR subtype entry is on record as “All”.
As to `CN[C@@H](C)C/C=C/c1cncc(OC)c1` [TC-2696], the “effect on LIDs” value in [1] is “reduced LIDs to varying extents”.
With `c1cnc2cc3c(cc2n1)[C@@H]1CNC[C@H]3C1` [Varenicline], on all nAChRs, the Ki (in general, the equilibrium dissociation constant of an inhibitor or competing ligand from its target) is 0.1 nM. The “effect on LIDs” value in series [1] is given as “reduced LIDs to varying extents”. In addition, in the series with nAChR, the Type of agonist result is on record as “Partial” and the nAChR subtype result is recorded as “All”.
As for `OCCCCC#Cc1cncc(OC[C@@H]2CCN2)c1` [sazetidine], the “effect on LIDs” value in series [1] is given as “reduced LIDs to varying extents”.
